What was measured:
[1] = system: Vav3−/− p190-BCR-ABL1 BM leukemic cells expressing full-length Vav3; test: Vav3 rescue, cell cycle analysis; type: cell-based, murine; details: 10 μM, 18 h
Excerpt: (§1) FIG. 15: Expression of transgenic Vav3 re-sensitizes Vav3-deficient cells to IODVA1. (A) Vav3 domain structure, calponin-homology (CH), acidic region (Ac), Dbl-homology (DH), pleckstrin-homology (PH), zinc finger (ZF), Src-homology 2 and 3 (SH2/SH3). (B) Representative histogram data of the cell cycle analysis of wild-type (Vav3^+/+) and Vav3-deficient (Vav3^−/−) p190-BCR-ABL1 leukemic bone marrow cells expressing empty vector, full-length Vav3 or ΔCH mutant and treated with vehicle control (black) or IODVA1 at 5 (red) or 10 μM (dark grey) for 18 h. (C) Quantification of the average number of colonies made by bone marrow wild-type and Vav3^−/− p190-BCR-ABL1 leukemic bone marrow cells expressing empty vector, full-length Vav3 or ΔCH mutant and treated with vehicle control (black) or IODVA1 at 1 (light salmon), 5 (red) and 10 μM (dark grey). *** p≤0.001.
(§2) Next, we reasoned that if IODVA1 targets Vav3, rescuing Vav3^−/− leukemic cells by expressing exogenous Vav3 should re-sensitize those cells to IODVA1. We expressed full-length Vav3 or the dominant active ΔCH-mutant (FIG. 15A) in Vav3^−/− p190-BCR-ABL1-transformed murine bone marrow leukemic cells and analyzed changes in cell cycle 18 h post-treatment with vehicle control or IODVA1 (FIG. 15B). Expressing full-length Vav3 but not the empty vector re-sensitized the Vav3^−/− BM leukemic cells to IODVA1 as shown by a 5.8-fold increase in apoptosis (p=0.0005) and a 15% decrease (p=0.08) in cells in the S-phase at 10 μM.
(§3) For Vav3 rescue experiments, low density bone marrow cells from wild-type ([…]) or Vav3^−/− mice were transduced with bicistronic retroviral vector encoding p190 BCR-ABL1-IRES-YFP (yellow fluorescent protein) and YFP^+ cells were sorted 48 h post-transduction. […] Cell cycle was analyzed at 18 h post BrdU incorporation.
(§4) Cell cycle was analyzed by using in vitro incorporation of 5-Bromo-2-deoxyuridine using Brdu Flow kit (BD Pharmingen, Cat #552598). […] DNAse treatment was done according to the instructions and stained with anti BrdU and apoptosis was analyzed by 7-AAD staining through flow cytometry analysis.

[2] = system: Vav3−/− p190-BCR-ABL1 BM leukemic cells expressing ΔCH-mutant Vav3; test: Vav3 rescue, cell cycle analysis; type: cell-based, murine; details: even at the highest concentration
Excerpt: as §1, §2, §3, §4

Rac1 = molecular target: T1, Rac1 (Homo sapiens, UniProt P63000); test: Microscale thermophoresis (MST) binding; details: no saturation at highest concentration tested, read-out: Kd, best estimate
T1 construct: His6 (N); made in house
Method: FIG. 14: IODVA1 targets Vav3 in vitro and in vivo. (A) Ba/F3 cells expressing empty vector Mieg3 or p190-BCR-ABL1 were treated with vehicle control or IODVA1 (IO1, 3 μM) for 30 min and incubated with GST-Rac and glutathione beads. Beads were washed and the protein complexes were separated on SDS-PAGE and immunoblotted for pVav3. Input Vav3 was used as control. (B) Binding affinity (Kd) between IODVA1 and Vav3 (green), LARG (brown), and RacGDP (blue). […] Error bars=SD; N=3. (C) Quantification of the average number of colonies made by bone marrow wild-type (black) and Vav3^−/− (lilac) p190-BCR-ABL1 leukemic cells treated with vehicle control or IODVA1 (IO1, 1 and 3 μM) (* p≤0.05; ** p≤0.01; *** p≤0.001; ns, not significant). (D) Representative histogram data of the cell cycle analysis of wild-type (black and grey bars) and Vav3^−/− (dark and light lilac) bone marrow cells expressing p190-BCR-ABL and treated with vehicle control or IODVA1 (IO1, 3 μM) for 20 h. (E) Quantification by densitometry of the pVav3 band from FIG. 14A. […]
To test this hypothesis, we measured its binding affinity (Kd) to recombinant Vav3 and Rac1 using microscale thermophoresis (MST); the catalytic domain (DH/PH) of the RhoGEF LARG served as negative control. […] Second, like Vav3, LARG contains a DH/PH domain responsible for the exchange activity such that any non-specific binding to this domain should be detected. […]

In the case of `OC1(c2ccccn2)N=C(Nc2nc3ccccc3[nH]2)N=C1c1ccccn1` (stereo not shown) [IODVA1, (Z)-2-((1H-benzo[d]imidazol-2-yl)imino)-4,5-di(pyridin-2-yl)-2,5-dihydro-1H-imidazol-5-ol], the increase in apoptosis ([1]; p=0.0005) is reported as 5.8 fold, the “decrease in cells in the S-phase” value ([1]; p=0.08) is reported as 15% and the “re-sensitization to IODVA1” value [2] is reported as “did not re-sensitize”. It also gave a Kd (Rac1) of roughly 35.5 µM.

— patent US11564913B2, “Compositions and methods for treating cancer” (Children's Hospital Medical Center, priority 2019, dated 2023)
